Measurements reported in patent US10757941B2, “Microbiocidal oxadiazole derivatives” (SYNGENTA PARTICIPATIONS AG, priority 2016, dated 2020).

Tests used:
Uromyces viciae-fabael = assay: Fungicidal activity against Uromyces viciae-fabae / field bean / leaf disc preventative (faba-bean rust); format: in vivo; conditions: foliar, 288 h, 100 ppm in the applied formulation, field bean leaf discs, preventative (inoculated two hours after application), assessed 12 days after application, compared to untreated, read-out: disease control
Description: Leaf disks or leaf segments of various plant species are cut from plants grown in a greenhouse. The cut leaf disks or segments are placed in multiwell plates (24-well format) onto water agar. The leaf disks are sprayed with a test solution before (preventative) or after (curative) inoculation. Compounds to be tested are prepared as DMSO solutions (max. 10 mg/ml) which are diluted to the appropriate concentration with 0.025% Tween20 just before spraying. The inoculated leaf disks or segments are incubated under defined conditions (temperature, relative humidity, light, etc.) according to the respective test system. A single evaluation of disease level is carried out 3 to 14 days after inoculation, depending on the pathosystem. Percent disease control relative to the untreated check leaf disks or segments is then calculated. Example 5: Fungicidal Activity Against Uromyces viciae-fabael Field Bean/Leaf Disc Preventative (Faba-Bean Rust) Field bean leaf discs are placed on water agar in multiwell plates (96-well format) and 10 μl of the formulated test compound diluted in acetone and a spreader pipetted onto the leaf disc. Two hours after application leaf discs are inoculated by spraying a spore suspension on the lower leaf surface. The leaf discs are incubated in a climate cabinet at 22° C. with 18 hour day and 70% relative humidity. The activity of a compound is assessed as percent disease control compared to untreated when an appropriate level of disease damage appears in untreated check leaf disks (12 days after application). The following compounds at 100 ppm in the applied formulation give at least 80% disease control in this test when compared to untreated control leaf discs under the same conditions, which show extensive disease development.

[1] = tested on: Glomerella lagenarium (Colletotrichum lagenarium); assay: Fungicidal activity against Glomerella lagenarium (Colletotrichum lagenarium) liquid culture / cucumber / preventative (anthracnose); format: cell-based; conditions: Colletotrichum orbiculare; 20 ppm in the applied formulation; liquid culture in PDB, 24° C.; inhibition of growth measured photometrically 3 to 4 days after application; compared to untreated; read-out: disease control
Description: Mycelia fragments or conidia suspensions of a fungus prepared either freshly from liquid cultures of the fungus or from cryogenic storage, are directly mixed into nutrient broth. DMSO solutions of the test compound (max. 10 mg/ml) are diluted with 0.025% Tween20 by a factor of 50 and 10 μl of this solution is pipetted into a microtiter plate (96-well format). The nutrient broth containing the fungal spores/mycelia fragments is then added to give an end concentration of the tested compound. The test plates are incubated in the dark at 24° C. and 96% relative humidity. The inhibition of fungal growth is determined photometrically after 2 to 7 days, depending on the pathosystem, and percent antifungal activity relative to the untreated check is calculated. Example 4: Fungicidal Activity Against Glomerella lagenarium (Colletotrichum lagenarium) Liquid Culture/Cucumber/Preventative (Anthracnose) Conidia of the fungus from cryogenic storage are directly mixed into nutrient broth (PDB—potato dextrose broth). After placing a (DMSO) solution of test compound into a microtiter plate (96-well format), the nutrient broth containing the fungal spores is added. The test plates are incubated at 24° C. and the inhibition of growth is measured photometrically 3 to 4 days after application. The following compounds at 20 ppm in the applied formulation give at least 80% disease control in this test when compared to untreated control under the same conditions, which show extensive disease development.

[2] = tested on: Puccinia recondita f. Sp. Tritici; assay: Fungicidal activity against Puccinia recondita f. sp. tritici / wheat / leaf disc preventative (brown rust); format: in vivo; conditions: foliar, 200 ppm in the applied formulation, wheat leaf segments cv. Kanzler, preventative (inoculated 1 day after application), assessed 7 to 9 days after application, compared to untreated, read-out: disease control
Description: Leaf disks or leaf segments of various plant species are cut from plants grown in a greenhouse. The cut leaf disks or segments are placed in multiwell plates (24-well format) onto water agar. The leaf disks are sprayed with a test solution before (preventative) or after (curative) inoculation. Compounds to be tested are prepared as DMSO solutions (max. 10 mg/ml) which are diluted to the appropriate concentration with 0.025% Tween20 just before spraying. The inoculated leaf disks or segments are incubated under defined conditions (temperature, relative humidity, light, etc.) according to the respective test system. A single evaluation of disease level is carried out 3 to 14 days after inoculation, depending on the pathosystem. Percent disease control relative to the untreated check leaf disks or segments is then calculated. Example 1: Fungicidal Activity Against Puccinia recondita f. Sp. Tritici/Wheat/Leaf Disc Preventative (Brown Rust) Wheat leaf segments cv. Kanzler were placed on agar in multiwell plates (24-well format) and sprayed with the formulated test compound diluted in water. The leaf disks were inoculated with a spore suspension of the fungus 1 day after application. The inoculated leaf segments were incubated at 19° C. and 75% relative humidity (rh) under a light regime of 12 hours light/12 hours darkness in a climate cabinet and the activity of a compound was assessed as percent disease control compared to untreated when an appropriate level of disease damage appears in untreated check leaf segments (7 to 9 days after application). The following compounds at 200 ppm in the applied formulation give at least 80% disease control in this test when compared to untreated control leaf disks under the same conditions, which show extensive disease development.

[3] = tested on: Puccinia recondita f. Sp. Tritici; assay: Fungicidal activity against Puccinia recondita f. sp. tritici / wheat / leaf disc curative (brown rust); format: in vivo; conditions: foliar, 200 ppm in the applied formulation, wheat leaf segments cv. Kanzler, curative (applied 1 day after inoculation), assessed 6 to 8 days after application, compared to untreated, read-out: disease control
Description: Leaf disks or leaf segments of various plant species are cut from plants grown in a greenhouse. The cut leaf disks or segments are placed in multiwell plates (24-well format) onto water agar. The leaf disks are sprayed with a test solution before (preventative) or after (curative) inoculation. Compounds to be tested are prepared as DMSO solutions (max. 10 mg/ml) which are diluted to the appropriate concentration with 0.025% Tween20 just before spraying. The inoculated leaf disks or segments are incubated under defined conditions (temperature, relative humidity, light, etc.) according to the respective test system. A single evaluation of disease level is carried out 3 to 14 days after inoculation, depending on the pathosystem. Percent disease control relative to the untreated check leaf disks or segments is then calculated. Example 2: Fungicidal Activity Against Puccinia recondita f. Sp. Tritici/Wheat/Leaf Disc Curative (Brown Rust) Wheat leaf segments cv. Kanzler are placed on agar in multiwell plates (24-well format). The leaf segments are then inoculated with a spore suspension of the fungus. Plates were stored in darkness at 19° C. and 75% relative humidity. The formulated test compound diluted in water was applied 1 day after inoculation. The leaf segments were incubated at 19° C. and 75% relative humidity under a light regime of 12 hours light/12 hours darkness in a climate cabinet and the activity of a compound was assessed as percent disease control compared to untreated when an appropriate level of disease damage appears in untreated check leaf segments (6 to 8 days after application). The following compounds at 200 ppm in the applied formulation give at least 80% disease control in this test when compared to untreated control leaf disks under the same conditions, which show extensive disease development.

Phakopsora pachyrhizi = assay: Fungicidal activity against Phakopsora pachyrhizi / soybean / leaf disc preventative (Asian soybean rust); format: in vivo; conditions: foliar, 200 ppm in the applied formulation, soybean leaf disks, preventative (inoculated one day after application), assessed 12 to 14 days after application, compared to untreated, read-out: disease control
Description: Leaf disks or leaf segments of various plant species are cut from plants grown in a greenhouse. The cut leaf disks or segments are placed in multiwell plates (24-well format) onto water agar. The leaf disks are sprayed with a test solution before (preventative) or after (curative) inoculation. Compounds to be tested are prepared as DMSO solutions (max. 10 mg/ml) which are diluted to the appropriate concentration with 0.025% Tween20 just before spraying. The inoculated leaf disks or segments are incubated under defined conditions (temperature, relative humidity, light, etc.) according to the respective test system. A single evaluation of disease level is carried out 3 to 14 days after inoculation, depending on the pathosystem. Percent disease control relative to the untreated check leaf disks or segments is then calculated. Example 3: Fungicidal Activity Against Phakopsora pachyrhizi/Soybean/Leaf Disc Preventative (Asian Soybean Rust) Soybean leaf disks are placed on water agar in multiwell plates (24-well format) and sprayed with the formulated test compound diluted in water. One day after application leaf discs are inoculated by spraying a spore suspension on the lower leaf surface. After an incubation period in a climate cabinet of 24-36 hours in darkness at 20° C. and 75% rh leaf disc are kept at 20° C. with 12 h light/day and 75% rh. The activity of a compound is assessed as percent disease control compared to untreated when an appropriate level of disease damage appears in untreated check leaf disks (12 to 14 days after application). The following compounds at 200 ppm in the applied formulation give at least 80% disease control in this test when compared to untreated control leaf disks under the same conditions, which show extensive disease development.

CN(C(=O)c1ccc(-c2noc(C(F)(F)F)n2)c(F)c1)C1CCN(C(=O)OC(C)(C)C)C1 (stereo not drawn) [Compound 1.2, tert-butyl 3-[[3-fluoro-4-[5-(trifluoromethyl)-1,2,4-oxadiazol-3-yl]benzoyl]-methyl-amino]pyrrolidine-1-carboxylate]
≥ 80%: pest or weed control at 100 ppm (Uromyces viciae-fabael) | inhibition of growth at 20 ppm [1] | pest or weed control at 200 ppm [2] | pest or weed control at 200 ppm [3]

O=C(NCCSCc1ccc(Cl)nc1)c1ccc(-c2noc(C(F)(F)F)n2)c(F)c1 [Compound 1.10, N-[2-[(6-chloro-3-pyridyl)methyl-sulfanyl]ethyl]-3-fluoro-4-[5-(trifluoromethyl)-1,2,4-oxadiazol-3-yl]benzamide]
≥ 80%: pest or weed control at 100 ppm (Uromyces viciae-fabael) | pest or weed control at 200 ppm (Phakopsora pachyrhizi) | inhibition of growth at 20 ppm [1] | pest or weed control at 200 ppm [2]

CC(C)CC(C)NC(=O)c1ccc(-c2noc(C(F)(F)F)n2)c(F)c1 (stereo not drawn) [Compound 1.38, N-(1,3-dimethylbutyl)-3-fluoro-4-[5-(trifluoromethyl)-1,2,4-oxadiazol-3-yl]benzamide]
≥ 80%: pest or weed control at 100 ppm (Uromyces viciae-fabael) | pest or weed control at 200 ppm (Phakopsora pachyrhizi) | inhibition of growth at 20 ppm [1] | pest or weed control at 200 ppm [2]

COC(=O)C1(NC(=O)c2ccc(-c3noc(C(F)(F)F)n3)c(F)c2)CCN(OC)CC1 [Compound 1.13, methyl 4-[[3-fluoro-4-[5-(trifluoromethyl)-1,2,4-oxadiazol-3-yl]benzoyl]amino]-1-methoxy-piperidine-4-carboxylate]
≥ 80%: pest or weed control at 100 ppm (Uromyces viciae-fabael) | pest or weed control at 200 ppm [2] | pest or weed control at 200 ppm [3]

CC(C)(CS(C)(=O)=O)NC(=O)c1ccc(-c2noc(C(F)(F)F)n2)c(F)c1 [Compound 1.22, N-(1,1-dimethyl-2-methylsulfonyl-ethyl)-3-fluoro-4-[5-(trifluoromethyl)-1,2,4-oxadiazol-3-yl]benzamide]
≥ 80%: pest or weed control at 100 ppm (Uromyces viciae-fabael) | pest or weed control at 200 ppm [2] | pest or weed control at 200 ppm [3]

O=C(NCC1CC(F)(F)C1(F)F)c1ccc(-c2noc(C(F)(F)F)n2)c(F)c1 (stereo not drawn) [Compound 1.23, 3-fluoro-N-[(2,2,3,3-tetrafluoro-cyclobutyl)methyl]-4-[5-(trifluoromethyl)-1,2,4-oxadiazol-3-yl]benzamide]
≥ 80%: pest or weed control at 100 ppm (Uromyces viciae-fabael) | pest or weed control at 200 ppm (Phakopsora pachyrhizi) | inhibition of growth at 20 ppm [1] | pest or weed control at 200 ppm [2]

C#CC1(NC(=O)c2ccc(-c3noc(C(F)(F)F)n3)c(F)c2)CCCCC1 [Compound 1.8, N-(1-ethynylcyclohexyl)-3-fluoro-4-[5-(trifluoromethyl)-1,2,4-oxadiazol-3-yl]benzamide]
≥ 80%: pest or weed control at 100 ppm (Uromyces viciae-fabael) | pest or weed control at 200 ppm (Phakopsora pachyrhizi) | inhibition of growth at 20 ppm [1] | pest or weed control at 200 ppm [2]

O=C(Nc1nccnn1)c1ccc(-c2noc(C(F)(F)F)n2)c(F)c1 [Compound 1.42, 3-fluoro-N-(1,2,4-triazin-3-yl)-4-[5-(trifluoromethyl)-1,2,4-oxadiazol-3-yl]benzamide]
≥ 80%: inhibition of growth at 20 ppm [1] | pest or weed control at 200 ppm [2] | pest or weed control at 200 ppm [3]

CSCCCNC(=O)c1ccc(-c2noc(C(F)(F)F)n2)c(F)c1 [Compound 1.6, 3-fluoro-N-(3-methylsulfanyl-propyl)-4-[5-(trifluoromethyl)-1,2,4-oxadiazol-3-yl]benzamide]
≥ 80%: pest or weed control at 100 ppm (Uromyces viciae-fabael) | pest or weed control at 200 ppm [2] | pest or weed control at 200 ppm [3]

COc1ccc2[nH]cc(CCNC(=O)c3ccc(-c4noc(C(F)(F)F)n4)c(F)c3)c2c1 [Compound 1.4, 3-fluoro-N-[2-(5-methoxy-1H-indol-3-yl)ethyl]-4-[5-(trifluoromethyl)-1,2,4-oxadiazol-3-yl]benzamide]
≥ 80%: pest or weed control at 100 ppm (Uromyces viciae-fabael) | pest or weed control at 200 ppm (Phakopsora pachyrhizi) | inhibition of growth at 20 ppm [1] | pest or weed control at 200 ppm [2]

CN(C(=O)c1ccc(-c2noc(C(F)(F)F)n2)c(F)c1)c1ccccn1 [Compound 1.5, 3-fluoro-N-methyl-N-(2-pyridyl)-4-[5-(trifluoromethyl)-1,2,4-oxadiazol-3-yl]benzamide]
≥ 80%: inhibition of growth at 20 ppm [1] | pest or weed control at 200 ppm [2] | pest or weed control at 200 ppm [3]
